Data taken from PMC5578959, “Selective LRRK2 kinase inhibition reduces phosphorylation of endogenous Rab10 and Rab12 in human peripheral mononuclear blood cells” (Scientific Reports, 2017).

Key:
total LRRK2 = system: T1, total LRRK2; test: Western Blot, cultured immune stimulated human PBMCs; type: cell-based; conditions: 100 nM; 24hr; PMA/INF-γ stimulated PBMCs, 3 DIV
T1 construct: human primary cells expressing endogenous levels of LRRK2; endogenous in cells; host or cells: human PBMCs from healthy donors

[1] = system: ZC1/HGK,ZC2/TNIK,ZC3/MINK; test: KiNativ profiling in human PBMCs; type: binding; conditions: Lys2
Method in brief: (§1)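 PBMCs treated in live-cell format, compound 1 µM / 0.1 µM; kinase profiling by KiNativ methodology.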

BTK = system: T2, BTK; test: KiNativ profiling in human PBMCs; type: binding
T2 construct: purchased ActivX Technologies (KiNativ)
Method in brief: as §1

CaMKK2 = system: T3, CaMKK2; test: KiNativ profiling in human PBMCs; type: binding
T3 construct: purchased ActivX Technologies (KiNativ)
Method in brief: as §1

MSK1 domain1 = system: T4, MSK1 domain1; test: KiNativ profiling in human PBMCs; type: binding; conditions: Lys2
T4 construct: MSK1 domain1; purchased ActivX Technologies (KiNativ)
Method in brief: as §1

PITSLRE = system: T5, PITSLRE; test: KiNativ profiling in human PBMCs; type: binding; conditions: Lys2
T5 construct: purchased ActivX Technologies (KiNativ)
Method in brief: as §1

CK1g2 = system: T6, CK1g2; test: KiNativ profiling in human PBMCs; type: binding; conditions: Lys2
T6 construct: purchased ActivX Technologies (KiNativ)
Method in brief: as §1

[2] = system: kinases other than LRRK2 (off-target kinases); test: KiNativ broad kinase profiling in human PBMCs; type: binding; conditions: 100 nM
Description: Compounds were shipped to ActivX Technologies (San Diego, US) where LRRK2 target engagement and broad kinase profiling was performed using KiNativ™ procedures. Live cell treatment of human peripheral blood mononuclear cells (PBMCs) at two compound concentrations (1 µM and 0.1 µM) were used to evaluate and compare in vitro target engagement and kinase selectivity, respectively (see Supplementary File 1).

MARK3, MARK4 = test: KiNativ profiling in human PBMCs; type: binding; conditions: Lys1
PKD3 = system: T7, PKD3; test: KiNativ profiling in human PBMCs; type: binding
T7 construct: purchased ActivX Technologies (KiNativ)

VRK2 = system: T8, VRK2; test: KiNativ profiling in human PBMCs; type: binding; conditions: Lys2
T8 construct: purchased ActivX Technologies (KiNativ)

TGFbR2 = system: T9, TGFbR2; test: KiNativ profiling in human PBMCs; type: binding; conditions: Lys2
T9 construct: purchased ActivX Technologies (KiNativ)

MAST4 = system: T10, MAST4; test: KiNativ profiling in human PBMCs; type: binding; conditions: Lys2
T10 construct: purchased ActivX Technologies (KiNativ)

COT = system: T11, COT; test: KiNativ profiling in human PBMCs; type: binding; conditions: ATP Loop
T11 construct: purchased ActivX Technologies (KiNativ)

BLK = system: T12, BLK; test: KiNativ profiling in human PBMCs; type: binding; conditions: Activation Loop
T12 construct: purchased ActivX Technologies (KiNativ)

Rab10-pThr73 = test: Acute inhibition, Western Blot, non-stimulated human PBMCs; type: cell-based
Description: (§2) HEK293 cells were plated at a density of 1 × 10^6 cells/well in 6-well plates pre-coated for 1 hr at 37 °C with poly-L-lysin. Subsequent to the transient transfection HEK293 cells were harvested using 1 mL cold Phosphate Buffered Saline (PBS) buffer (Invitrogen, California, US) and subsequently centrifuged at 800 g for 2 minutes. Cell pellets were resuspended and solubilized in 100 µL lysis buffer (50 mM Tris hydrochloride, 1 mM magnesium chloride, 1% Triton, 0.1% sodium dodecyl sulfate (SDS), pH 8.0) on ice for 20 minutes and then centrifuged at 20,000 g for 30 minutes at 4 °C. The solubilized crude cell lysate was size mobility separated by SDS-polyacrylamide gel electrophoresis (SDS-PAGE). LRRK2 was separated on a 3–8% Tris-Acetate gel (NuPAGE® Tris-Acetate Mini Gels, Life Technologies, Paisley, UK) and Rab10 and Rab12 were separated using a NuPAGE® Novex 4–12% Bis-Tris Gel (Invitrogen, California, US). An amount of 10 µg total protein was loaded in each well. Proteins were transferred to immobilon-FL PVDF membranes (Millipore, Billerica, US). Membranes were incubated with primary antibodies overnight at 4 °C: mouse monoclonal [N241A/34] anti-LRRK2 antibody (1:2,000; NeuroMab, California, US), rabbit monoclonal [UDD2 10(12)] anti-pS935-LRRK2 antibody (1:1,000; RabMAb®, Abcam, Cambridge, UK), mouse anti-HA monoclonal antibody [clone HA-7] (1:10,000; Santa Cruz Biotechnology, Texas, US), rabbit anti-Rab10-pThr73 polyclonal [#5981] (1:2,000; H. Lundbeck A/S, DK) and rabbit anti-Rab12-Ser106 polyclonal antibody [#5919] (1:5,000; H. Lundbeck A/S, DK). Subsequently, the membranes were washed and incubated with secondary antibodies for 1 hour at room temperature: Anti-rabbit IgG F(c) (GOAT) antibody IRDye® 800CW Conjugated (1:10,000; Rockland Immunochemicals Inc., Gilbertsville, US) and anti-mouse Alexa Fluor® 680 Goat anti-mouse IgM (1:20,000; Life Technologies, Paisley, UK). The proteins were visually detected by infrared imaging using Odyssey CLx (LI-COR, Nebraska, US). Membranes were scanned and band intensities were quantified using the Image Studio version 3.1.4 (LI-COR, Nebraska).
(§3) PBMCs were isolated using the density gradient medium, Lymphoprep™ from Stemcell Technologies (Vancouver, Canada) following their standard protocol. Briefly, 4 ml blood was diluted with 4 ml PBS and applied at the SepMate™ tubes (Stemcell Technologies) and spun at 1200xg for 20 min at RT in the centrifuge without brakes. The PBMC layer was collected and spun at 600xg for 8 min and washed two times in PBS by spinning at 600xg between each wash. After the last wash, the cells were counted and the cellular concentration was adjusted to 50 × 10^6 cells/ml in PBS. Donor samples were treated with the LRRK2 inhibitor PFE-360 for one hour and the cells were hereafter lysed by adding 1/10 volume lysis buffer (5% Triton-X, 5% Digitonin, 10 mM EDTA) containing phosphatase and protease inhibitor cocktail (Roche Diagnostics, Mannheim, Germany). The lysates from human PBMCs were subjected to SDS-PAGE and Western Blotting procedures as described above.

LRRK2-pSer935 = biological target: T13, LRRK2-pSer935 (Homo sapiens, UniProt Q5S007); test: as above; type: cell-based
T13 construct: human primary cells expressing endogenous levels of LRRK2; endogenous in cells; host or cells: human PBMCs from healthy donors
T13 sequence (Q5S007 whole entry): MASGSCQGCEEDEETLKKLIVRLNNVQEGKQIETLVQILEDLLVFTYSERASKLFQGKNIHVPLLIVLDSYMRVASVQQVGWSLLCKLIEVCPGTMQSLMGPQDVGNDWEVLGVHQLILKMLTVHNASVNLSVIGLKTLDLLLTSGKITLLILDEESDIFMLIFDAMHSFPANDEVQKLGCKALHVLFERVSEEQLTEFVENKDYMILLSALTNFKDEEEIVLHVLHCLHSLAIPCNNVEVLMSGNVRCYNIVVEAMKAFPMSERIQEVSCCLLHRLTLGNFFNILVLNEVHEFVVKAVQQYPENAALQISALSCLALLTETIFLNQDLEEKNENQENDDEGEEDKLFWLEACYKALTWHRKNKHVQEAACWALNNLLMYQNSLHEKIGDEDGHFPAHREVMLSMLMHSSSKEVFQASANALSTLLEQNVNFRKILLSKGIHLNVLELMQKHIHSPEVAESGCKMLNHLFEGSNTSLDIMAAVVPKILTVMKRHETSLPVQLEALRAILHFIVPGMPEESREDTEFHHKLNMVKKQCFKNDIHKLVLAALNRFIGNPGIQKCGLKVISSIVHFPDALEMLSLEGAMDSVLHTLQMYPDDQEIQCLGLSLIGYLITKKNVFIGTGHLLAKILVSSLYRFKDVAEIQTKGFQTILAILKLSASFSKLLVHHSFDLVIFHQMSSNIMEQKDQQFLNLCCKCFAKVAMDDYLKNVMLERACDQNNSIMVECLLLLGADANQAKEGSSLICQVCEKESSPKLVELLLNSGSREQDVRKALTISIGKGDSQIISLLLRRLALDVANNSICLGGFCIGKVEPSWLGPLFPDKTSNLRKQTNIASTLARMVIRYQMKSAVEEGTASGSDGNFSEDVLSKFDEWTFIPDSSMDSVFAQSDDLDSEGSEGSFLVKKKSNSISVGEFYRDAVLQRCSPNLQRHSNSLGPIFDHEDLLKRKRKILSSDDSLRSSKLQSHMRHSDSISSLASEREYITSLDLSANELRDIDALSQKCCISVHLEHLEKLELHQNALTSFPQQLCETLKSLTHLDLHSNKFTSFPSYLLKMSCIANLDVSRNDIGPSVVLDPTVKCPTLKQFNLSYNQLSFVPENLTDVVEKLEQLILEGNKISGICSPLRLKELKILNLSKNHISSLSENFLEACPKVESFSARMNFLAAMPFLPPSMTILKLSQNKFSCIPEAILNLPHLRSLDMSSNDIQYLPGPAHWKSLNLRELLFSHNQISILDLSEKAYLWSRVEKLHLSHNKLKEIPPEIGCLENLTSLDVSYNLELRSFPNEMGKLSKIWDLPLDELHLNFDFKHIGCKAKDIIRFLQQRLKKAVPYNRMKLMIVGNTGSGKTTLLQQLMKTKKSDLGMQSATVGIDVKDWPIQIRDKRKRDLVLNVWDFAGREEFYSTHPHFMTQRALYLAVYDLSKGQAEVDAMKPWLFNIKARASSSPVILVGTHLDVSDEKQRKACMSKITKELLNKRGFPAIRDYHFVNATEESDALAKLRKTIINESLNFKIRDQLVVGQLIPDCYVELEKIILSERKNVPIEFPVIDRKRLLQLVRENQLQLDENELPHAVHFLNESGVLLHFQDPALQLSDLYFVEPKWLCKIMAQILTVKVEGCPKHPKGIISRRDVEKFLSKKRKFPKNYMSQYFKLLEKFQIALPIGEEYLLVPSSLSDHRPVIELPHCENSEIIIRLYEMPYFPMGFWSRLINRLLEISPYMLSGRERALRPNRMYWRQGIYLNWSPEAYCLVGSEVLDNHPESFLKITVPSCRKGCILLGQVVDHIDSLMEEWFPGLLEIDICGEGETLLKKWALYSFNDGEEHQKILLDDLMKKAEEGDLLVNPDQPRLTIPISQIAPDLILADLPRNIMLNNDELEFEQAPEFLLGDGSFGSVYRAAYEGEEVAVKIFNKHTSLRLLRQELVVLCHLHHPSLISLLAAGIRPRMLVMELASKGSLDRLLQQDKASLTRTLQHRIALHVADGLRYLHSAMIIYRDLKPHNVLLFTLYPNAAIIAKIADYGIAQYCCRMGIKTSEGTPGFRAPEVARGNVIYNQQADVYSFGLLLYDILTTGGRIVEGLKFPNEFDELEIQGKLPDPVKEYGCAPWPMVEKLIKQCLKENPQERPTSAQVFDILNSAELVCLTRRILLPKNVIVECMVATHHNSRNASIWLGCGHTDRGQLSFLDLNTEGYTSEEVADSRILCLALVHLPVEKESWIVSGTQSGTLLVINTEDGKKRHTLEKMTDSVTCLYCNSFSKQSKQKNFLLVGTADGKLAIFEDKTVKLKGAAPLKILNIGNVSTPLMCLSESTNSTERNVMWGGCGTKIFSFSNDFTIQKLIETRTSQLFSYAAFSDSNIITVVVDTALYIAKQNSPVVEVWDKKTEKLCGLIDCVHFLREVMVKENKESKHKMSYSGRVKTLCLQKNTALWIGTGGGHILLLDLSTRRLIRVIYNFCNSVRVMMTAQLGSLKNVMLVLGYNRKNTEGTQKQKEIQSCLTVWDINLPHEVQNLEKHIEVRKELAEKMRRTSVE
Description: as §2, §3

ITPK1 = system: T14, ITPK1; test: KiNativ profiling in human PBMCs; type: binding; conditions: ATP
T14 construct: purchased ActivX Technologies (KiNativ)

[3] = 2 µM, 1hr, non-stimulated PBMCs, n = 6 donors
[4] = non-stimulated human PBMCs, 1 hour, n = 3

## Cc1cccc(-c2cc(Nc3ccn(C)n3)nc3[nH]cc(C#N)c23)c1 [Lu AF58786]
Total LRRK2
  total LRRK2 protein levels: significantly lowers
[1]; 0.1µM
  Inhibition: 6.6%
[1]; 1µM
  Inhibition: -3.7%
BTK; 0.1µM, Activation Loop
  Inhibition: 25.8%
BTK; 1µM, Activation Loop
  Inhibition: 9.5%
CaMKK2; 0.1µM, Lys2
  Inhibition: 13.8%
CaMKK2; 1µM, Lys2
  Inhibition: 1.3%
MSK1 domain1; 0.1µM
  Inhibition: 15.8%
MSK1 domain1; 1µM
  Inhibition: 1.9%
PITSLRE; 0.1µM
  Inhibition: 2.7%
PITSLRE; 1µM
  Inhibition: -9.8%
CK1g2; 0.1µM
  Inhibition: 5.2%
CK1g2; 1µM
  Inhibition: -0.12%
[2]; human PBMCs
  inhibition of other kinases: no inhibition

## Cn1cc(-c2c[nH]c3ncnc(N4CCOCC4)c23)cc1C#N [PFE-360]
MARK3, MARK4; 0.1µM
  % Inhibition: 0.7%
MARK3, MARK4; 1µM
  % Inhibition: 3.6%
PKD3; 0.1µM, Lys1
  % Inhibition: 1.2%
PKD3; 0.1µM, Lys2
  % Inhibition: 17.6%
PKD3; 1µM, Lys1
  % Inhibition: -10.7%
PKD3; 1µM, Lys2
  % Inhibition: -1.1%
VRK2; 0.1µM
  % Inhibition: -2.9%
VRK2; 1µM
  % Inhibition: 8.4%
TGFbR2; 0.1µM
  % Inhibition: -5.4%
TGFbR2; 1µM
  % Inhibition: -16.3%
MAST4; 0.1µM
  % Inhibition: -5.7%
MAST4; 1µM
  % Inhibition: -21.4%
COT; 0.1µM
  % Inhibition: 26.3%
COT; 1µM
  % Inhibition: 7.7%
BLK; 0.1µM
  % Inhibition: 12.4%
BLK; 1µM
  % Inhibition: -11.6%
Rab10-pThr73; [3]
  Rab10-pThr73 levels vs PBS-treated PBMC samples: significantly lower
Rab10-pThr73; [4]
  IC50: 0.012 µM
  pIC50 ± SEM, Rab10-pThr73: 7.9 ± 0.3 (n = 3)
LRRK2-pSer935; 2 µM, 1hr, non-stimulated PBMCs
  LRRK2 inhibition: full LRRK2 inhibition
LRRK2-pSer935; [3]
  LRRK2-pSer935 levels vs PBS-treated PBMC samples: significantly lower
LRRK2-pSer935; [4]
  IC50: 0.024 µM
  pIC50 ± SEM, LRRK2-pSer935: 7.6 ± 0.3 (n = 3)
ITPK1; 0.1µM
  % Inhibition: -34%
ITPK1; 1µM
  % Inhibition: -34.7%
[1]; 0.1µM
  % Inhibition: 10.3%
[1]; 1µM
  % Inhibition: -7.3%
BTK; 0.1µM, Activation Loop
  % Inhibition: -5.6%
BTK; 0.1µM, Lys1
  % Inhibition: -12.3%
BTK; 1µM, Activation Loop
  % Inhibition: -15.5%
BTK; 1µM, Lys1
  % Inhibition: 2.1%
CaMKK2; 0.1µM, Lys1
  % Inhibition: -23.9%
CaMKK2; 0.1µM, Lys2
  % Inhibition: -16.3%
CaMKK2; 1µM, Lys1
  % Inhibition: -1.2%
CaMKK2; 1µM, Lys2
  % Inhibition: 4.6%
MSK1 domain1; 0.1µM
  % Inhibition: -7.8%
MSK1 domain1; 1µM
  % Inhibition: -5.1%
PITSLRE; 0.1µM
  % Inhibition: -3.8%
PITSLRE; 1µM
  % Inhibition: -18.7%
CK1g2; 0.1µM
  % Inhibition: -2%
CK1g2; 1µM
  % Inhibition: -13.3%
[2]; acutely isolated human PBMCs
  inhibition of off-target kinases: ≤ 60%
